Test results published in patent publication US20120157401A1, “METHODS FOR TREATING NEUROFIBROMATOSIS” (PTC Therapeutics, Inc., priority 2009, published 2012).
Marks after values point to notes of the source that are not given here.

Assays:
IL-6 = test: Patients: serum and plasma IL-6 levels; format: in vivo, human
Method: Subjects with NF2 may receive continuous daily treatment with a Compound administered at 100 mg per dose, 2 times a day (BID) for up to 1 year, or longer as appropriate, or until tumor progression. […] Tumor shrinkage or an improvement in hearing are indicators of efficacy.
Anti-angiogenic activity: Assessing VEGF concentrations provides a relevant and convenient mechanism-specific marker of Compound activity. […] For example, clinically validated ELISA kits (e.g., from R&D Systems, Minneapolis, Minn.) may be used to measure concentrations of VEGF, VEGF-C, P1GF, VEGFR, and inflammatory mediators such as IL-6 and IL-8. CT scan and MRI scan may also be used to assess peritumoral inflammation or edema.
Blood for VEGF, VEGFR, and Cytokines. Two blood samples (1 for plasma and 1 for serum) may be obtained for assessment of VEGF, VEGFR, and cytokine levels.
After processing, samples may be placed into a freezer at approximately −70° C. An ELISA-based multiplex system may be used to measure plasma VEGF and cytokine levels.

[1] = tested on: hypoxia-inducible endogenous VEGF expression; test: Hypoxia-inducible endogenous VEGF expression ELISA in HeLa cells, dose-response EC50 (Table 3); format: cell-based, human; settings: Homo sapiens; HeLa cells, hypoxic conditions (1% O2), 24-48 hours, VEGF in conditioned media; read-out: ELISA EC50
In short: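 HeLa cells kept 24-48 h under hypoxia (1% O2, 5% CO2, nitrogen balance) with or without compound, e.g. seven concentrations; secreted VEGF in conditioned medium quantified by ELISA against a standard curve. Parallel Cell Titer Glo viability under identical conditions excludes cytotoxicity.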

[2] = tested on: HT1080 tumor cells in vivo; test: HT1080 xenograft studies of Compound 1205, Compound #10 and Compound 1330: tumor growth; parameters: species or system athymic nude mice
Description: Experimental Design. HT1080 cells (5×10^6 cells/mouse) were implanted subcutaneously in male athymic nude mice. […] For comparison, Compound #10 was included in this study.

[3] = tested on: human VEGF121 and VEGF165; test: HT1080 xenograft studies #21/#23: intra-tumor and pathologic plasma human VEGF (Compound 1205); format: in vivo; settings: for Mean difference in human plasma VEGF (%) on Day 14 / Mean difference in human tumor VEGF (%) at Day 14: 14 days
Description: Experimental Design. HT1080 cells (5×10^6 cells/mice) were implanted subcutaneously into male athymic nude mice. Treatment with vehicle alone or Compound 1205 was initiated when the median tumor volume was approximately 311±88 mm^3. Table 7 and Table 9 (study design #21 and #23) provide the study design for assessing tumor and plasma pathologic VEGF concentrations—each group in each study included eight (8) mice. When the tumors in vehicle-treated mice had reached the target size of ˜1200 mm^3 for study #21 and ˜1500 mm^3 for study #23, all mice in the study were sacrificed, and excised tumors were homogenized in buffer containing protease inhibitors. Both intra-tumor and pathologic plasma human VEGF levels were measured using an ELISA that recognizes human VEGF121 and VEGF165. Intra-tumor VEGF levels were normalized to the total tumor protein concentration and pathologic plasma VEGF levels were expressed in pg/mL. Because smaller tumors produce less VEGF per mg of tumor protein, intra-tumor VEGF levels were normalized to tumor size.

T47D xenografts = test: T47D estrogen-sensitive breast cancer xenograft: tumor growth; settings: 10 mg/kg oral QD
Method: Experimental Design. Estrogen pellets (0.72 mg/pellet) were implanted 30 days prior to cell implantation and again 60 days later. T47D estrogen-sensitive breast cancer cells (5×10^6 cells/mouse mixed 1:1 with […] ™) were implanted subcutaneously in female athymic nude mice. […] Tamoxifen was included as a positive control.
Tumor size was measured by calipers at periodic intervals. After 74 days of treatment, the mice were sacrificed.

[4] = tested on: human VEGF121 and VEGF165; test: HT1080 xenograft time course: pathologic plasma human VEGF; format: in vivo; settings: by Day 1
Method: (§1) Experimental Design. HT1080 cells (5×10^6 cells/mouse) were implanted subcutaneously in male athymic nude mice.
Tumor size was measured by calipers immediately pre-treatment and at the time of sacrifice on Day 1, 2, or 3 (5 mice per group per day). At sacrifice, the plasma was collected for assay of pathologic human VEGF concentration using an ELISA that recognizes human VEGF121 and VEGF165 (as described in Section 9.1.1.1).

HT1080 xenografts = test: BrdU labeling of cells from HT1080 xenografts grown in nude mice; format: in vivo, athymic nude mice; settings: Day 1, 2, 3; Compound #10 10 mg/kg oral QD, doxorubicin 6 mg/kg IP, bevacizumab 5 mg/kg IP
Method: as §1
The mice were sacrificed 3 hours later, and the tumors collected. A single cell suspension was prepared from the tumor cells. The cells were permeabilized and an antibody to BrdU was used to stain cells that had entered S phase during the labeling period. The proportion of cells actively synthesizing DNA was determined by cell sorting.

## COc1ccc([C@H]2c3[nH]c4ccc(Cl)cc4c3CCN2C(=O)Oc2ccc(Cl)cc2)cc1 [#10]
IL-6
  Serum IL-6 levels in patients (FIG. 37): reduced
[1]
  EC50: < 8 nM

## O=C(Oc1ccc(Cl)cc1)N1CCc2c([nH]c3ccc(Cl)cc23)[C@@H]1c1ccc(OCC[C@H](O)CO)cc1 [Compound 1205]
[2]; HT1080 xenografts, QD
  Lowest dose at which active on tumor growth: 0.3 mg/kg
[2]; Study 21, 0.5 mg/kg QD, Day 14
  Mean difference in tumor growth rate at the Day that the vehicle-treated tumors taken off study: 61%**
[2]; Study 21, 0.5 mg/kg QD, PD, 14 days
  Final mean terminal tumor size in treatment group: 580 mm^3
[2]; Study 21, 3 mg/kg QD, Day 14
  Mean difference in tumor growth rate at the Day that the vehicle-treated tumors taken off study: 80%**
[2]; Study 21, 3 mg/kg QD, PD, 14 days
  Final mean terminal tumor size in treatment group: 379 mm^3
[2]; Study 22, 0.5 mg/kg QD
  Difference vs. vehicle in median number of days to reach 1000 mm^3: 11 days
[2]; Study 22, 0.5 mg/kg QD, Day 11
  Mean difference in tumor growth rate at the Day that the vehicle-treated tumors taken off study: 62%**
[2]; Study 22, 0.5 mg/kg QD, Xeno
  Final mean terminal tumor size in treatment group: 1750 mm^3
[2]; Study 22, 3 mg/kg QD
  Difference vs. vehicle in median number of days to reach 1000 mm^3: 14** Days
[2]; Study 22, 3 mg/kg QD, Day 11
  Mean difference in tumor growth rate at the Day that the vehicle-treated tumors taken off study: 75%**
[2]; Study 22, 3 mg/kg QD, Xeno
  Final mean terminal tumor size in treatment group: 1840 mm^3
[2]; Study 23, 1 mg/kg QD, Day 14
  Mean difference in tumor growth rate at the Day that the vehicle-treated tumors taken off study: 59%**
[2]; Study 23, 1 mg/kg QD, PD, 14 days
  Final mean terminal tumor size in treatment group: 710 mm^3
[2]; Study 24a, 10 mg/kg QD
  Difference vs. vehicle in median number of days to reach 1000 mm^3: 14** Days
[2]; Study 24a, 10 mg/kg QD, Day 11
  Mean difference in tumor growth rate at the Day that the vehicle-treated tumors taken off study: 76%**
[2]; Study 24a, 10 mg/kg QD, Xeno
  Final mean terminal tumor size in treatment group: 1400 mm^3
[2]; Study 24b, 0.3 mg/kg QD
  Difference vs. vehicle in median number of days to reach 1000 mm^3: 0.7 days
[2]; Study 24b, 0.3 mg/kg QD, Day 15
  Mean difference in tumor growth rate at the Day that the vehicle-treated tumors taken off study: 28%
[2]; Study 24b, 0.3 mg/kg QD, Xeno
  Final mean terminal tumor size in treatment group: 1540 mm^3
[1]
  EC50: < 8 nM
[3]; 0.5 or 3 mg/kg QD
  Inhibition of pathologic plasma human VEGF levels: more than 95%
  Inhibition of tumor human VEGF levels: more than 95%
[3]; Study #21, 0.5 mg/kg QD
  Mean difference in human plasma VEGF (%) on Day 14: 97%**
  Mean difference in human tumor VEGF (%) at Day 14: 95%**
[3]; Study #21, 3 mg/kg QD
  Mean difference in human plasma VEGF (%) on Day 14: 99%
  Mean difference in human tumor VEGF (%) at Day 14: 98%**
[3]; Study #23, 1 mg/kg QD
  Mean difference in human plasma VEGF (%) on Day 14: 100%**
  Mean difference in human tumor VEGF (%) at Day 14: 95** %

## CC/C(=C(\c1ccccc1)c1ccc(OCCN(C)C)cc1)c1ccccc1 [Tamoxifen, tamoxifen, reference compound]
T47D xenografts
  Mean % Inhibition of Tumor Size vs Vehicle at Day 74: 50%

## COc1cccc2c1C(=O)c1c(O)c3c(c(O)c1C2=O)C[C@@](O)(C(=O)CO)C[C@@H]3O[C@H]1C[C@H](N)[C@H](O)[C@H](C)O1 [doxorubicin, reference compound]
[4]
  Pathologic plasma human VEGF levels vs control animals: numerically lower than in control animals
HT1080 xenografts
  BrdU staining of tumor cells (proportion of cells in S phase): decreased the percentage of tumor cells staining with BrdU
